# Assay results published in patent US20240391931A1 (Bristol-Myers Squibb Company, priority 2021, published 2024).
# Molecular target: HER2YVMA (Homo sapiens, UniProt P04626, INS775YVMA)
# Experiment: HER2 signaling (pHER2) in Hek293-HER2YVMA cells
# Format: cell-based
# Design: expressed in transfected cells; host or cells: HEK293 (pool), Ba/F3 (clones), BEAS2B (clones); lentiviral vector pCDH-CMV-MCS-EF1-Neo
# Settings: 1.5 hr compound, 1% FBS, read-out: HEKYVMA pHER2 EC50
# In short: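 Lentivirally transduced HER2YVMA lines (HEK293 pool; BEAS2B clone) treated 1.5 h at 37 °C in 1% FBS medium with compound at 0.0005–1.1 μM. Lysates read by MSD immunoassay for pHER2 (Tyr1248) normalized to total HER2, as % DMSO control; EC50 from variable-slope sigmoidal fit.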
# HER2YVMA, sequence (P04626 with tags, fused parts or gaps INS775YVMA): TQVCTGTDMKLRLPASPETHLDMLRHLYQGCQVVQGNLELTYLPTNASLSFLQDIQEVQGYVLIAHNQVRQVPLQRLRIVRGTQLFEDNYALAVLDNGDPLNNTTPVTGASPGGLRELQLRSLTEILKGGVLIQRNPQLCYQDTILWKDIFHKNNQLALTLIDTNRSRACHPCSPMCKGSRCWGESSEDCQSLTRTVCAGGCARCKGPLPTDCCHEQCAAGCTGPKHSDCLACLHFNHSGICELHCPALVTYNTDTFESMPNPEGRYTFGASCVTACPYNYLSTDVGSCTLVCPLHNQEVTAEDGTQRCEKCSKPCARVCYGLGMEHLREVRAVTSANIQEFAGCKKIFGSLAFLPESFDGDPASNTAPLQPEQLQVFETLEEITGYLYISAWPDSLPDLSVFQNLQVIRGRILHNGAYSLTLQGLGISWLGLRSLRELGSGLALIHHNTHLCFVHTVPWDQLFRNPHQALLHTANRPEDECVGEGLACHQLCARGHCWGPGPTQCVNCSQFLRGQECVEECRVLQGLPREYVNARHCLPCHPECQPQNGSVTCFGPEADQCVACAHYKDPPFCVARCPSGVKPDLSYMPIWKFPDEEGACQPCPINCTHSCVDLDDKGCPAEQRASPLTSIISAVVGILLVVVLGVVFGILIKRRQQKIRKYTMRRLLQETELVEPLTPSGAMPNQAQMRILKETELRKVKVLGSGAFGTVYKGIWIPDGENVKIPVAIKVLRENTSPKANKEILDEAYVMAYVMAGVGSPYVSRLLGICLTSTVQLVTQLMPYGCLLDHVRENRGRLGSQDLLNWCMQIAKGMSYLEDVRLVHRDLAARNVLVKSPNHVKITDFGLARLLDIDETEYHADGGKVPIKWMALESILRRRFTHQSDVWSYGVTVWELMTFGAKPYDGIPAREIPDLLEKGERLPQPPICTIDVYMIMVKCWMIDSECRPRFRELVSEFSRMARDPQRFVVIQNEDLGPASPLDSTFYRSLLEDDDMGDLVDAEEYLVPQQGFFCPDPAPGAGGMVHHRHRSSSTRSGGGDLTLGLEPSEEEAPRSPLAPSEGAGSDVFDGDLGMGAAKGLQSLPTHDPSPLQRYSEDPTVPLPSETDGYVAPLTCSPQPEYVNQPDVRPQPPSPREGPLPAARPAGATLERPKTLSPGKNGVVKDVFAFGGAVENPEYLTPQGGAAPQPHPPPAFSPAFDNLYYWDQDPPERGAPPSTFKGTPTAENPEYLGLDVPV
row,EC50,SMILES
1,< 100 nM,Cc1cc(Nc2ncnc3sc4c(c23)CCN(C(=O)/C=C/CN2CC(C)OC(C)C2C)C4)ccc1Oc1ccc2ncnn2c1 (stereo not drawn) [Compound 83]
2,100 to 350 nM,Cc1cc(Nc2ncnc3sc4c(c23)CCN(C(=O)/C=C/CN2CC(C)(C)OC(C)(C)C2)C4)ccc1Oc1ccc2ncnn2c1 [Compound 84]
3,< 100 nM,"C=C(CN1CCc2c(sc3ncnc(Nc4ccc(Oc5ccc(C)nc5)c(C)c4)c23)C1)C(=O)OCC [Compound 86, Ethyl 2-((4-((3-methyl-4-((6-methylpyridin-3-yl)oxy)phenyl)amino)-5,8-dihydropyrido[4′,3′:4,5]thieno[2,3-d]pyrimidin-7(6H)-yl)methyl)acrylate]"
4,< 100 nM,O=C(/C=C/CN1CC2CC1CO2)N1CCc2c(sc3ncnc(Nc4ccc(Oc5ccc6ncnn6c5)c(Cl)c4)c23)C1 (stereo not drawn) [Compound 87]
5,< 100 nM,O=C(/C=C/CN1CC2CCC(C2)C1)N1CCc2c(sc3ncnc(Nc4ccc(Oc5ccc6ncnn6c5)c(Cl)c4)c23)C1 [Compound 88]
6,< 100 nM,CN(C/C=C/C(=O)N1CCc2c(sc3ncnc(Nc4ccc(Oc5ccc6ncnn6c5)c(Cl)c4)c23)C1)C(C)(C)C [Compound 91]
7,< 100 nM,O=C(/C=C/CN1CC2C(CO)C2C1)N1CCc2c(sc3ncnc(Nc4ccc(Oc5ccc6ncnn6c5)c(Cl)c4)c23)C1 (stereo not drawn) [Compound 92]
8,< 100 nM,"C=CC(=O)N1CCc2[nH]c3ncnc(Nc4ccc(Oc5ccc(C)nc5)c(C)c4)c3c2C1 [Compound 94, 1-(4-((3-methyl-4-((6-methylpyridin-3-yl)oxy)phenyl)amino)-7,8-dihydro-5H-pyrido[3′,4′:4,5]pyrrolo[2,3-d]pyrimidin-6(9H)-yl)prop-2-en-1-one]"
9,< 100 nM,"COc1ccc(Oc2ccc(Nc3ncnc4sc5c(c34)CCN(C(=O)/C=C/CN(C)C)C5)cc2C)cn1 [Compound 95, (E)-4-(Dimethylamino)-1-(4-((4-((6-methoxypyridin-3-yl)oxy)-3-methylphenyl)amino)-5,6-dihydropyrido[4′,3′:4,5]thieno[2,3-d]pyrimidin-7(8H)-yl)but-2-en-1-one]"
10,< 100 nM,"CCOC/C=C/C(=O)N1CCc2c(sc3ncnc(Nc4ccc(Oc5ccc(C)nc5)c(C)c4)c23)C1 [Compound 96, (E)-4-ethoxy-1-(4-((3-methyl-4-((6-methylpyridin-3-yl)oxy)phenyl)amino)-5,8-dihydropyrido[4′,3′:4,5]thieno[2,3-d]pyrimidin-7(6H)-yl)but-2-en-1-one]"
11,100 to 350 nM,"Cc1ccc(Oc2ccc(Nc3ncnc4[nH]c5c(c34)CN(C(=O)/C=C/CN(C)C)CC5)cc2C)cn1 [Compound 97, (E)-4-(dimethylamino)-1-(4-((3-methyl-4-((6-methylpyridin-3-yl)oxy)phenyl)amino)-5,7,8,9-tetrahydro-6H-pyrido[3′,4′:4,5]pyrrolo[2,3-d]pyrimidin-6-yl)but-2-en-1-one]"
12,< 100 nM,"Cc1ccc(Oc2ccc(Nc3ncnc4sc5c(c34)C(C)CN(C(=O)/C=C/CN(C)C)C5)cc2C)cn1 (stereo not drawn) [Compound 98, (E)-4-(dimethylamino)-1-(5-methyl-4-((3-methyl-4-((6-methylpyridin-3-yl)oxy)phenyl)amino)-5,8-dihydropyrido[4′,3′:4,5]thieno[2,3-d]pyrimidin-7(6H)-yl)but-2-en-1-one]"
13,< 100 nM,"Cc1ccc(Oc2ccc(Nc3ncnc4sc5c(c34)CN(C(=O)/C=C/CN(C)C)C5)cc2C)cn1 [Compound 99, (E)-4-(dimethylamino)-1-(4-((3-methyl-4-((6-methylpyridin-3-yl)oxy)phenyl)amino)-5,7-dihydro-6H-pyrrolo[3′,4′:4,5]thieno[2,3-d]pyrimidin-6-yl)but-2-en-1-one]"

row,SMILES,EC50
1,Cc1cc(Nc2ncnc3sc4c(c23)CCN(C(=O)/C=C/CN2CC3CC(C3)C2)C4)ccc1Oc1ccc2ncnn2c1 [Compound 82],< 100 nM
2,O=C(/C=C/CN1CC2CC(C2)C1)N1CCc2c(sc3ncnc(Nc4ccc(Oc5ccc6ncnn6c5)c(Cl)c4)c23)C1 [Compound 85],< 100 nM
